Experimental data taken from patent US10442796B2, “2,3,5-substituted thiophene compound as protein kinase inhibitor” (KOREA INSTITUTE OF SCIENCE AND TECHNOLOGY, priority 2016, dated 2019).
Values belong to the molecule of their own block, whether it stands above or below them.

Key:
[1] = biological target: AXL (Homo sapiens, UniProt P30530); assay: Kinase inhibitory activity, full kinase panel; assay type: biochemical; settings: single concentration of 1 μM, read-out: %Inhibitory ability
Experimental: (§1) In order to measure inhibitory activity (% inhibitory ability) against a protein kinase with respect to the compound of the present invention, a biochemical assay was performed in a full kinase panel shown in the following Table 1. As an experimental compound, the (S)-5-((3-fluorophenyl)ethynyl)-N-(piperidin-3-yl)-3-ureidothiophene-2-carboxamide synthesized in Example 24 was used.

[2] = biological target: BIKE (Homo sapiens, UniProt Q9NSY1); assay: Kinase inhibitory activity, full kinase panel; assay type: biochemical; settings: single concentration of 1 μM, read-out: %Inhibitory ability
Experimental: as §1

[3] = biological target: CHEK1 (Homo sapiens, UniProt O14757); assay: Kinase inhibitory activity, full kinase panel; assay type: biochemical; settings: single concentration of 1 μM, read-out: %Inhibitory ability
Experimental: as §1

[4] = biological target: DAPK3 (Homo sapiens, UniProt O43293); assay: Kinase inhibitory activity, full kinase panel; assay type: biochemical; settings: single concentration of 1 μM, read-out: %Inhibitory ability
Experimental: as §1

[5] = biological target: EGFR(T790M) (Homo sapiens, UniProt P00533, T790M); assay: Kinase inhibitory activity, full kinase panel; assay type: biochemical; settings: single concentration of 1 μM, read-out: %Inhibitory ability
Experimental: as §1

[6] = biological target: HCK (Homo sapiens, UniProt P08631); assay: Kinase inhibitory activity, full kinase panel; assay type: biochemical; settings: single concentration of 1 μM, read-out: %Inhibitory ability
Experimental: as §1

[7] = biological target: JAK3 (Homo sapiens, UniProt P52333); assay: Kinase inhibitory activity, full kinase panel; assay type: biochemical; settings: single concentration of 1 μM, read-out: %Inhibitory ability
Experimental: as §1

[8] = biological target: LCK (Homo sapiens, UniProt P06239); assay: Kinase inhibitory activity, full kinase panel; assay type: biochemical; settings: single concentration of 1 μM, read-out: %Inhibitory ability
Experimental: as §1

[9] = biological target: LOK (Homo sapiens, UniProt O94804); assay: Kinase inhibitory activity, full kinase panel; assay type: biochemical; settings: single concentration of 1 μM, read-out: %Inhibitory ability
Experimental: as §1

[10] = biological target: MAP4K5 (Homo sapiens, UniProt Q9Y4K4); assay: Kinase inhibitory activity, full kinase panel; assay type: biochemical; settings: single concentration of 1 μM, read-out: %Inhibitory ability
Sequence of MAP4K5 (Q9Y4K4 whole entry, species assumed): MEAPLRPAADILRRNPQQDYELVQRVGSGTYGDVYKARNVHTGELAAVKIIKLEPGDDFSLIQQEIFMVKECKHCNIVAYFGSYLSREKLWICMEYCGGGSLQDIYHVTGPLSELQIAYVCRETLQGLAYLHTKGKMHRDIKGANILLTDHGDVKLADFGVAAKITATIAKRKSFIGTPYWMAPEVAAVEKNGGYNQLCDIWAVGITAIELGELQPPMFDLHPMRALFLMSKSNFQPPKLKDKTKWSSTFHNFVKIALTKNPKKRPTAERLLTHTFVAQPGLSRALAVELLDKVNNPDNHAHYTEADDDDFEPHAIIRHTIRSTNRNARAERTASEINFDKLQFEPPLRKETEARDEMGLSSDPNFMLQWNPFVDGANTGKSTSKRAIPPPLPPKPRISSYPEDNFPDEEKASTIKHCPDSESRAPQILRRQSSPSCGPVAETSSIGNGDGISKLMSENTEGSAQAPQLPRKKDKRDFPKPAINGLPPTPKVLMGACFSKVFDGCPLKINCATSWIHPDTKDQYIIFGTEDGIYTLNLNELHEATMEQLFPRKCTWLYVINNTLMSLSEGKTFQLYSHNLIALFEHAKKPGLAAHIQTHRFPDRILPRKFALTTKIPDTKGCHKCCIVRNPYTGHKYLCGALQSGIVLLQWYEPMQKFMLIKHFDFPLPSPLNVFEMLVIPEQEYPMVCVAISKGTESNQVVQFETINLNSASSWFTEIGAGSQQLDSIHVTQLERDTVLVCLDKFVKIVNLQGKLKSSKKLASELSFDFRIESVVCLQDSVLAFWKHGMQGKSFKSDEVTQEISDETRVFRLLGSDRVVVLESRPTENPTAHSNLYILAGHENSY
Experimental: as §1

[11] = biological target: MARK2 (Homo sapiens, UniProt Q7KZI7); assay: Kinase inhibitory activity, full kinase panel; assay type: biochemical; settings: single concentration of 1 μM, read-out: %Inhibitory ability
Sequence of MARK2 (Q7KZI7 whole entry, species assumed): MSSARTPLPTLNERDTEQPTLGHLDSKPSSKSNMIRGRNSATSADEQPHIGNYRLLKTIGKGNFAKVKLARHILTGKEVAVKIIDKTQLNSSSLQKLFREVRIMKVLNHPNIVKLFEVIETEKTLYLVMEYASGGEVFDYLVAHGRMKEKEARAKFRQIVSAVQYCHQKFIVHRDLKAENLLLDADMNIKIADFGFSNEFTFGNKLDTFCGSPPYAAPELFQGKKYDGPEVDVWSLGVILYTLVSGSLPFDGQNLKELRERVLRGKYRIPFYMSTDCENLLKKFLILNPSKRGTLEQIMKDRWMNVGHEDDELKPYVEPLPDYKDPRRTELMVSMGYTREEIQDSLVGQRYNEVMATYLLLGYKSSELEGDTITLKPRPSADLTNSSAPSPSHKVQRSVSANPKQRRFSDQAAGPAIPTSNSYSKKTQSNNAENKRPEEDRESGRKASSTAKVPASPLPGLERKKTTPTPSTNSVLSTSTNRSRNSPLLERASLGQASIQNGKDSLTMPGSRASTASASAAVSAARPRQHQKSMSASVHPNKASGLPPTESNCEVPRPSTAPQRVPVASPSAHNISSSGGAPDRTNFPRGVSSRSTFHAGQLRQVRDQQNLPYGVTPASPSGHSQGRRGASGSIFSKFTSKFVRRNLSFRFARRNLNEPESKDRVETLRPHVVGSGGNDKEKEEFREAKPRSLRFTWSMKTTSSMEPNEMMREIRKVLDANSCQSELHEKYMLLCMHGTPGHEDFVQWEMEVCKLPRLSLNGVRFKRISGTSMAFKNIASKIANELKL
Experimental: as §1

[12] = biological target: MEK2 (Homo sapiens, UniProt P36507); assay: Kinase inhibitory activity, full kinase panel; assay type: biochemical; settings: single concentration of 1 μM, read-out: %Inhibitory ability
Experimental: as §1

[13] = biological target: MEK3 (Homo sapiens, UniProt P46734); assay: Kinase inhibitory activity, full kinase panel; assay type: biochemical; settings: single concentration of 1 μM, read-out: %Inhibitory ability
Experimental: as §1

[14] = biological target: MEK5 (Homo sapiens, UniProt Q13163); assay: Kinase inhibitory activity, full kinase panel; assay type: biochemical; settings: single concentration of 1 μM, read-out: %Inhibitory ability
Experimental: as §1

[15] = biological target: MLK3 (Homo sapiens, UniProt Q16584); assay: Kinase inhibitory activity, full kinase panel; assay type: biochemical; settings: single concentration of 1 μM, read-out: %Inhibitory ability
Experimental: as §1

[16] = biological target: PRKG2 (Homo sapiens, UniProt Q13237); assay: Kinase inhibitory activity, full kinase panel; assay type: biochemical; settings: single concentration of 1 μM, read-out: %Inhibitory ability
Experimental: as §1

[17] = biological target: RET (Homo sapiens, UniProt P07949); assay: Kinase inhibitory activity, full kinase panel; assay type: biochemical; settings: single concentration of 1 μM, read-out: %Inhibitory ability
Experimental: as §1

[18] = biological target: RIOK1 (Homo sapiens, UniProt Q9BRS2); assay: Kinase inhibitory activity, full kinase panel; assay type: biochemical; settings: single concentration of 1 μM, read-out: %Inhibitory ability
Experimental: as §1

[19] = biological target: RIOK3 (Homo sapiens, UniProt O14730); assay: Kinase inhibitory activity, full kinase panel; assay type: biochemical; settings: single concentration of 1 μM, read-out: %Inhibitory ability
Experimental: as §1

[20] = biological target: RIPK4 (Homo sapiens, UniProt P57078); assay: Kinase inhibitory activity, full kinase panel; assay type: biochemical; settings: single concentration of 1 μM, read-out: %Inhibitory ability
Sequence of RIPK4 (P57078 whole entry): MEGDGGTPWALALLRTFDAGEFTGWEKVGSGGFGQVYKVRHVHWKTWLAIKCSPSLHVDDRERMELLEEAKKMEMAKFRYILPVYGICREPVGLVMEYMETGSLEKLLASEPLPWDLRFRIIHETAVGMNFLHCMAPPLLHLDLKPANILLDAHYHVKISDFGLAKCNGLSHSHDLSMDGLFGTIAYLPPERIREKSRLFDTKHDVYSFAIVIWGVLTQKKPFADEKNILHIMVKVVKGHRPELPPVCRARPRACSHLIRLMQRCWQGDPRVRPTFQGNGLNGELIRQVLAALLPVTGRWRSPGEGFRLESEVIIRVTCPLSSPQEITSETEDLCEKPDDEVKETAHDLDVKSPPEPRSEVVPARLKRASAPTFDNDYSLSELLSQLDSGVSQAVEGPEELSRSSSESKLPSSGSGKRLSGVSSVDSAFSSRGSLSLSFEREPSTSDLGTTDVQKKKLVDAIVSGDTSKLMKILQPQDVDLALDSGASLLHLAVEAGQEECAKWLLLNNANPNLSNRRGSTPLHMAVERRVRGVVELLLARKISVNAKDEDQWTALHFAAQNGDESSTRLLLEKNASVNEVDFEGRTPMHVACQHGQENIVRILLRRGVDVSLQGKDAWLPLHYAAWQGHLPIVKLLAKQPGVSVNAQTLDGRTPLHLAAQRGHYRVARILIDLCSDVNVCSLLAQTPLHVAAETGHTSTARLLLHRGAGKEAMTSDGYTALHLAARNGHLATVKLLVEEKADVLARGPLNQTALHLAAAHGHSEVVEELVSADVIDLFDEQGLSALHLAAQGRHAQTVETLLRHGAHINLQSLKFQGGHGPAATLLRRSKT
Experimental: as §1

[21] = biological target: SRPK1 (Homo sapiens, UniProt Q96SB4); assay: Kinase inhibitory activity, full kinase panel; assay type: biochemical; settings: single concentration of 1 μM, read-out: %Inhibitory ability
Sequence of SRPK1 (Q96SB4 whole entry, species assumed): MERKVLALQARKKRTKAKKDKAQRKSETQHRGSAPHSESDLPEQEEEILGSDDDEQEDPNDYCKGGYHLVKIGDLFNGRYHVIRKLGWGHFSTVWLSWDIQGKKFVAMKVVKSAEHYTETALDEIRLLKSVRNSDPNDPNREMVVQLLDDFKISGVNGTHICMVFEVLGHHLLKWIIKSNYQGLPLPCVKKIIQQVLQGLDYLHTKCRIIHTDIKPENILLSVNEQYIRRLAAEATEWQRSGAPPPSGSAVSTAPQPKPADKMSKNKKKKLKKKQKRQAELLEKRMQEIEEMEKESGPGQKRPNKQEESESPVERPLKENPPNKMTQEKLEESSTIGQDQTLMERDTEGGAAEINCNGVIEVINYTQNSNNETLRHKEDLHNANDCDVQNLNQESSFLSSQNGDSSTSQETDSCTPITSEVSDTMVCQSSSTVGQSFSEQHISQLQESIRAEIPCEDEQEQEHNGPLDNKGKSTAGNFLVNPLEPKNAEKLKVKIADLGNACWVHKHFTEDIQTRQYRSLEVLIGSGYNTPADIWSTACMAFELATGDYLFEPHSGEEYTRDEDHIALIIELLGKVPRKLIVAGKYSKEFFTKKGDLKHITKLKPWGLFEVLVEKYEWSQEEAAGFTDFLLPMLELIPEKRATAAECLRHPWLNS
Experimental: as §1

[22] = biological target: SYK (Homo sapiens, UniProt P43405); assay: Kinase inhibitory activity, full kinase panel; assay type: biochemical; settings: single concentration of 1 μM, read-out: %Inhibitory ability
Experimental: as §1

[23] = biological target: TNIK (Homo sapiens, UniProt Q9UKE5); assay: Kinase inhibitory activity, full kinase panel; assay type: biochemical; settings: single concentration of 1 μM, read-out: %Inhibitory ability
Sequence of TNIK (Q9UKE5 whole entry, species assumed): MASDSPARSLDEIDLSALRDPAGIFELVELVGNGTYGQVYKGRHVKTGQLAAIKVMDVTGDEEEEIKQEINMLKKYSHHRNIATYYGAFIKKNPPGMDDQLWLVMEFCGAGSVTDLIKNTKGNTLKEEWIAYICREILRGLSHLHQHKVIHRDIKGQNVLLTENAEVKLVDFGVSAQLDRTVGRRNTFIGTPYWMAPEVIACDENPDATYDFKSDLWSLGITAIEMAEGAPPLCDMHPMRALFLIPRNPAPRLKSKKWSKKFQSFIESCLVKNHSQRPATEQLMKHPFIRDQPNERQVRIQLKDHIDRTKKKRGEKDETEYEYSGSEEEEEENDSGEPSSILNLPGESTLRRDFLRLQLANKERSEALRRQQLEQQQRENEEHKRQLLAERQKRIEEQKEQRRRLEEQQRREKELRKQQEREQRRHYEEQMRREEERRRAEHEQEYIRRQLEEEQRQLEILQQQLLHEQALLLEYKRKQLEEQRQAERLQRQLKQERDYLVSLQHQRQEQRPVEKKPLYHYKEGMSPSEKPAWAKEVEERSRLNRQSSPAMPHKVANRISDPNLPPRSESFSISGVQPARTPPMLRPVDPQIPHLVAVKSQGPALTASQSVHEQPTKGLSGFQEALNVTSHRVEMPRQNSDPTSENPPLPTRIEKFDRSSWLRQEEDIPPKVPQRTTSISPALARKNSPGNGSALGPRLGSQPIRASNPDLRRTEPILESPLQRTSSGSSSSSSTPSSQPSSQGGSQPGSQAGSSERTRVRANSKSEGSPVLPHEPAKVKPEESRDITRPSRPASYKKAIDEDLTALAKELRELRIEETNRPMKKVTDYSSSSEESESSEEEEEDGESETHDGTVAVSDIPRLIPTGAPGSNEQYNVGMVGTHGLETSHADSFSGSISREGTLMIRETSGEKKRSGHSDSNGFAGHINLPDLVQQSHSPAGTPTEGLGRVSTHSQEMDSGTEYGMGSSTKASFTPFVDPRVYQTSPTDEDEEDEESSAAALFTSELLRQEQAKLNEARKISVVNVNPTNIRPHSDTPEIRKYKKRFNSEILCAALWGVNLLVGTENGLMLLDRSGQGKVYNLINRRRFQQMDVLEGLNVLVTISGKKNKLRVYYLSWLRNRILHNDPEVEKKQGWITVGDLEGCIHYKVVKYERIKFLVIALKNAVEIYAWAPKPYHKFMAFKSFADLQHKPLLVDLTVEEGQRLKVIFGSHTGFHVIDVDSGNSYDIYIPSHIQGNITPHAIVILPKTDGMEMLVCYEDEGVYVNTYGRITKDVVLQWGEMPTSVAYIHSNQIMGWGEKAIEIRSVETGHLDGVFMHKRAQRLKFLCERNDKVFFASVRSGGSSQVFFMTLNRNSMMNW
Experimental: as §1

[24] = biological target: ULK2 (Homo sapiens, UniProt Q8IYT8); assay: Kinase inhibitory activity, full kinase panel; assay type: biochemical; settings: single concentration of 1 μM, read-out: %Inhibitory ability
Experimental: as §1

[25] = biological target: YANK1 (Homo sapiens, UniProt Q8WU08); assay: Kinase inhibitory activity, full kinase panel; assay type: biochemical; settings: single concentration of 1 μM, read-out: %Inhibitory ability
Sequence of YANK1 (Q8WU08 whole entry, species assumed): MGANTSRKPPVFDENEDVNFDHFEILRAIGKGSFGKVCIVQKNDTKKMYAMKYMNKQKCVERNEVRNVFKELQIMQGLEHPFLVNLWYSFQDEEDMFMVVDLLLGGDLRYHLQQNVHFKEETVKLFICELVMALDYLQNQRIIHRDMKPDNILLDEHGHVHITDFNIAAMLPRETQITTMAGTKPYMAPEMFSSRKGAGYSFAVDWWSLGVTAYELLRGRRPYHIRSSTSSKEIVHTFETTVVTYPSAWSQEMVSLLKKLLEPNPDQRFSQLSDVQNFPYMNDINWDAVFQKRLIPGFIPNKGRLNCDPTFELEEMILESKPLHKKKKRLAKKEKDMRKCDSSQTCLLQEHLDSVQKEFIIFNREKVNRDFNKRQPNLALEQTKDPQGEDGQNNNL
Experimental: as §1

[26] = test system: FLT3-ITD-F691L-D835Y Ba/F3 cells; assay: Spleen size in mouse AML model; assay type: in vivo; settings: 15, 30 mg/kg; after drug administration for 9 days
Experimental: Nude mice (5-6 weeks old)(Orient) were purchased and used after a week. Mice were anesthetized following IACUC approved animal protocol. FLT3-ITD F691L-D835Y, luc+ Ba/F3 cell (Established in-house) suspension (in 0.1 mL RPMI1640 (Welgene) of 1.0×10^6 cells) was injected into tail vein intravenously using a 29-G needle, and an tail mark was added to each animal for identification. After 6 days, the luminescence intensity was measured using IVIS (Perkin Elmer) to calculate the ROI intensity. Once ROI intensity reaches the study-desired minimum intensity (usually 2×106), mice were randomized into different treatment groups based on signal intensity.
Each compound was dissolved in NMP at 20× final concentration and diluted to 1× with the remaining vehicle components (vehicle: 5% NMP, 15% solutol (Sigma-aldrich), 30% PEG400 (Sigma-aldrich), 50% 0.05M citric acid (Sigma-aldrich)). Each compound solution was prepared freshly just before administration. […]
Mice were then euthanized by cervical dislocation while they were still under isoflurane anesthesia. The spleens from the mice were isolated and weighted, and spleen weight index was calculated as organ weight (mg) per gram of mouse body weight. […]
Statistical analysis of luminescence signal intensity, mouse body weight, and spleen/body weight ratio were evaluated using two-way ANOVA. […]

- inhibition at 1 µM [1]: 87%
- inhibition at 1 µM [2]: 77%
- inhibition at 1 µM [3]: 96.1%
- inhibition at 1 µM [4]: 84%
- inhibition at 1 µM [5]: 85%
- inhibition at 1 µM [6]: 94.9%
- inhibition at 1 µM [7]: 91.1%
- inhibition at 1 µM [8]: 72%
- inhibition at 1 µM [9]: 71%
- inhibition at 1 µM [10]: 85%
- inhibition at 1 µM [11]: 79%
- inhibition at 1 µM [12]: 93.3%
- inhibition at 1 µM [13]: 83%
- inhibition at 1 µM [14]: 99.9%
- inhibition at 1 µM [15]: 90.8%
- inhibition at 1 µM [16]: 96.6%
- inhibition at 1 µM [17]: 98.7%
- inhibition at 1 µM [18]: 77%
- inhibition at 1 µM [19]: 79%
- inhibition at 1 µM [20]: 97.6%
- inhibition at 1 µM [21]: 83%
- inhibition at 1 µM [22]: 91.5%
- inhibition at 1 µM [23]: 96.3%
- inhibition at 1 µM [24]: 99.7%
- inhibition at 1 µM [25]: 95.5%
Compound: Cc1ccc(C#Cc2cc(NC(N)=O)c(C(=O)N[C@H]3CCCNC3)s2)cc1 [Example 24, (S)—N-(piperidin-3-yl)-5-(p-tolylethynyl)-3-ureidothiophene-2-carboxamide]

Compound: NC(=O)Nc1cc(C#Cc2cccc(F)c2)sc1C(=O)N[C@H]1CCCNC1 [Example 22, (S)-5-((3-fluorophenyl)ethynyl)-N-(piperidin-3-yl)-3-ureidothiophene-2-carboxamide]
- spleen size (spleen weight over mouse body weight) [26]: reduced to the disease free spleen size
